Where a name gives a salt, the structure may show the parent alone. A value given as a limit tells only on which side of the number the result lay.

Data set [1] is described as follows: Blood circulation of drug-loaded vesicles. To be noted: nude Balb/C, mouse, whole blood, intravenous, 10 mg/kg. Here is the method:
The blood samples (approximately 10 μL) were collected at time points of 0, 0.25, 0.5, 1, 2, 4, 8, 12 and 24 h. The exact weight of the blood was determined through weighing by difference method, then 100 μL Triton (concentration: 1%) and 500 μL DMF (which contained 20 mM DTT, 1 M HCl) were added. The sample was subjected to extraction, followed by centrifugation (20,000 rpm, 20 min).

Data set [2] is described as follows: Maximum tolerated dose (MTD). To be noted: nude Balb/C, mouse, in vivo. From the text: Nude Balb/C mice with body weight of about 18-20 g, aged 4-6 weeks were used. […] The standard for MTD was non accidental death in mice or weight less than 15% in mice.
The next data set has as its system B16 tumor. Put plainly: Antitumor effect and weight change in mice bearing B16 tumor. The format is in vivo, Nude Balb/C mice. From the text:
After 2 weeks, when the size of the tumors was 30-50 mm^3, the experiment began. […] From Day 0 to 18, the body weight of the mice in each group was weighed every two days. The size of the tumor was precisely measured with Vernier scale, where the method for calculating the volume of tumors was: V=(L×W×H)/2, (where L was the length of the tumor, W was the width of the tumor, H was the thickness of the tumor). The survival of the mice was observed continuously till the 45th day.

A further data set relates to tumor site. Put plainly: CT imaging of nano-vesicles in mice (Example 20). To be noted: tail vein, circulation after 40 minutes. The format is in vivo. Here is the method: By the changing CT value in FIG. 10 can be seen, after a 4 hour cycle, CT change of cRGD20/CLPs was the highest, followed by CLPs, and lowest in the control group, after 7 hours of circulation, CT value of cRGD20/CLPs is 2 times and 10 times than the other two groups.

Broadly, the half-life is how long it takes for the measured level to halve. Read a low half-life as fast loss. What is called MTD is the highest dose tested that stayed within the study's limit of toxicity. Higher therefore signals a wide tolerated range. With `COc1cccc2c1C(=O)c1c(O)c3c(c(O)c1C2=O)C[C@@](O)(C(=O)CO)C[C@@H]3O[C@H]1C[C@H](N)[C@H](O)[C@H](C)O1` [DOX.HCl, doxorubicin hydrochloride], the half-life in data set [1] is 7.8 min. In data set [2], this molecule displayed an MTD at 10 days of less than 10 mg/kg. In the data set with B16 tumor (DOX.HCl 10 mg/kg at 0, 4, 8, 12 day, 19-day treatment), the tumor growth entry is on record as “may also inhibit tumor expansion”. The molecule also had a body weight decrease in the data set on B16 tumor (in 7 days, DOX.HCl 10 mg/kg) of 20%.

Take `CC(=O)N(CC(O)CO)c1c(I)c(C(=O)NCC(O)CO)c(I)c(C(=O)NCC(O)CO)c1I` (centres unmarked) [iohexol]: the “contrast signal in the bladder” value in the data set with tumor site is “contrast strong signal”.
